# Assay results published in PubChem BioAssay AID192 (DTP/NCI, 2004).
# “And” between values parts separate entries of the source, which are not always exact repeats. Equal values may be shown once. Inconclusive results and toxic doses are left out.
# Tested on: BDF1 mice, B16 melanoma ip, median survival T/C
# Experiment: NCI In Vivo Anticancer Drug Screen. Data for tumor model B16 Melanoma (intraperitoneal) in B6D2F1 (BDF1) mice
# Settings: endpoint: median survival time, higher = longer survival
# Method in brief: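 Transplantable tumor model; survival or tumor size measured; reported as T/C, treated over vehicle control.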
# [1] = dose: 6.25 mg/kg/injection, schedule: Q01DX009 (ip), vehicle: saline
# [2] = dose: 6.25 mg/kg/injection, schedule: Q01DX009 (ip), vehicle: saline with Tween-80
# [3] = dose: 50.0 mg/kg/injection, schedule: Q01DX009 (ip), vehicle: saline with Tween-80
# [4] = dose: 100.0 mg/kg/injection, schedule: Q01DX009 (ip), vehicle: saline with Tween-80
# [5] = dose: 12.5 mg/kg/injection, schedule: Q01DX009 (ip), vehicle: Klucel (hydroxypropylcellulose) (HPC)
# [6] = dose: 25.0 mg/kg/injection, schedule: Q01DX009 (ip), vehicle: Klucel (hydroxypropylcellulose) (HPC)
# [7] = dose: 50.0 mg/kg/injection, schedule: Q01DX009 (ip), vehicle: Klucel (hydroxypropylcellulose) (HPC)
# [8] = dose: 12.5 mg/kg/injection, schedule: Q01DX009 (ip), vehicle: saline with Tween-80
# [9] = dose: 25.0 mg/kg/injection, schedule: Q01DX009 (ip), vehicle: saline with Tween-80
# [10] = dose: 12.5 mg/kg/injection, schedule: Q01DX009 (ip), vehicle: saline
smiles,measurement,setting,value
CC1(C)N=C(N)N=C(N)N1c1ccc(F)c(C(F)(F)F)c1,T/C,"dose: 3.12 mg/kg/injection, schedule: Q01DX009 (ip), vehicle: saline",96 % of control
same,T/C,[1],118 % of control
same,T/C,"dose: 12.0 mg/kg/injection, schedule: Q01DX009 (ip), vehicle: saline",120 % of control
CCc1ccc2c(c1)N(CCCN(CCCl)CCCl)c1ccccc1S2,T/C,"dose: 1.56 mg/kg/injection, schedule: Q01DX009 (ip), vehicle: saline with Tween-80",114 % of control
same,T/C,"dose: 1.56 mg/kg/injection, schedule: Q04DX003 (ip), vehicle: saline with Tween-80",87 % of control
same,T/C,"dose: 3.12 mg/kg/injection, schedule: Q01DX009 (ip), vehicle: saline with Tween-80",92 % of control and 123 % of control
same,T/C,"dose: 3.12 mg/kg/injection, schedule: Q04DX003 (ip), vehicle: saline with Tween-80",110 % of control
same,T/C,[2],111 % of control and 117 % of control
same,T/C,"dose: 6.25 mg/kg/injection, schedule: Q04DX003 (ip), vehicle: saline with Tween-80",105 % of control
same,T/C,"dose: 12.5 mg/kg/injection, schedule: Q04DX003 (ip), vehicle: saline with Tween-80",112 % of control
same,T/C,"dose: 25.0 mg/kg/injection, schedule: Q04DX003 (ip), vehicle: saline with Tween-80",115 % of control
Cc1c2c(cc3c1[nH]c1ccccc13)C=NCC2,T/C,[3],107 % of control
same,T/C,[4],98 % of control
same,T/C,"dose: 200.0 mg/kg/injection, schedule: Q01DX009 (ip), vehicle: saline with Tween-80",109 % of control
COc1cc2cc(c1Cl)N(C)C(=O)CC(OC(=O)C(C)N(C)C(=O)C(C)C)C1(C)OC1C(C)C1CC(O)(NC(=O)O1)C(OC)/C=C/C=C(C)C2 (stereo not given),T/C,"dose: 5.0 micrograms/kg/injection, schedule: Q01DX009 (ip), vehicle: saline + alcohol",171 % of control
same,T/C,"dose: 10.0 micrograms/kg/injection, schedule: Q01DX009 (ip), vehicle: saline + alcohol",177 % of control
O=C1NC(=O)C2(CCc3ccc(N(CCCl)CCCl)cc32)N1 (stereo not given),T/C,"dose: 1.5 mg/kg/injection, schedule: Q01DX009 (ip), vehicle: saline with Tween-80",120 % of control
same,T/C,"dose: 3.0 mg/kg/injection, schedule: Q01DX009 (ip), vehicle: saline with Tween-80",116 % of control
same,T/C,"dose: 12.0 mg/kg/injection, schedule: Q01DX009 (ip), vehicle: saline with Tween-80",183 % of control
same,T/C,"dose: 12.5 mg/kg/injection, schedule: Q01DX004 (oral), vehicle: saline with Tween-80",102 % of control
N#CCCN(C(=O)COc1ccc(Cl)cc1Cl)C1CCCCC1,T/C,[5],99 % of control
same,T/C,[6],103 % of control
same,T/C,[7],98 % of control
NNC(=O)c1ccc(Cl)cc1Cl,T/C,[5],100 % of control
same,T/C,"dose: 12.5 mg/kg/injection, schedule: Q04DX003 (ip), vehicle: Klucel (hydroxypropylcellulose) (HPC)",103 % of control
same,T/C,[6],86 % of control
same,T/C,"dose: 25.0 mg/kg/injection, schedule: Q04DX003 (ip), vehicle: Klucel (hydroxypropylcellulose) (HPC)",93 % of control
Nc1nc(Nc2ccccc2)nc(C(=O)O)n1,T/C,"dose: 100.0 mg/kg/injection, schedule: Q04DX003 (ip), vehicle: Klucel (hydroxypropylcellulose) (HPC)",100 % of control
same,T/C,"dose: 200.0 mg/kg/injection, schedule: Q04DX003 (ip), vehicle: Klucel (hydroxypropylcellulose) (HPC)",97 % of control
same,T/C,"dose: 400.0 mg/kg/injection, schedule: Q04DX003 (ip), vehicle: Klucel (hydroxypropylcellulose) (HPC)",92 % of control
O=C1C=C[C@H](O)[C@@]2(CO)O[C@@H]12,T/C,"dose: 1.25 mg/kg/injection, schedule: Q01DX009 (ip), vehicle: saline with Tween-80",101 % of control
same,T/C,"dose: 2.5 mg/kg/injection, schedule: Q01DX009 (ip), vehicle: saline with Tween-80",101 % of control
same,T/C,"dose: 5.0 mg/kg/injection, schedule: Q01DX009 (ip), vehicle: saline with Tween-80",122 % of control
same,T/C,"dose: 10.0 mg/kg/injection, schedule: Q01DX009 (ip), vehicle: saline with Tween-80",104 % of control
N#CC(=C1C=CC(=NO)C=C1)c1ccc(Cl)cc1,T/C,[2],88 % of control
same,T/C,[8],95 % of control
same,T/C,[9],87 % of control
same,T/C,[3],86 % of control
Cc1ccc(S(=O)(=O)NC(=S)S)cc1,T/C,[8],88 % of control
same,T/C,[9],98 % of control and 122 % of control
same,T/C,[3],97 % of control
same,T/C,[4],92 % of control and 122 % of control
CCCCCCCCCCCCCCCCCC[N+](C)(C)c1nc(Cl)nc(Cl)n1,T/C,"dose: 3.13 mg/kg/injection, schedule: Q01DX009 (ip), vehicle: other",98 % of control
same,T/C,"dose: 6.25 mg/kg/injection, schedule: Q01DX009 (ip), vehicle: other",100 % of control
same,T/C,"dose: 12.5 mg/kg/injection, schedule: Q01DX009 (ip), vehicle: other",99 % of control
COc1cc2c(cc1OC)C(c1ccc(O)c(O)c1)CNC2 (stereo not given),T/C,"dose: 50.0 mg/kg/injection, schedule: Q04DX003 (ip), vehicle: saline with Tween-80",99 % of control
same,T/C,"dose: 100.0 mg/kg/injection, schedule: Q04DX003 (ip), vehicle: saline with Tween-80",89 % of control
same,T/C,"dose: 200.0 mg/kg/injection, schedule: Q04DX003 (ip), vehicle: saline with Tween-80",90 % of control
C[n+]1c2cc(N)ccc2cc2ccc(N)cc21,T/C,"dose: 1.56 mg/kg/injection, schedule: Q01DX009 (ip), vehicle: saline",107 % of control
same,T/C,"dose: 3.13 mg/kg/injection, schedule: Q01DX009 (ip), vehicle: saline",117 % of control
same,T/C,[1],115 % of control
same,T/C,[10],111 % of control
COC(C(=O)C(O)C(C)O)C1CC2C=C3C=C(OC4CC(OC5CC(O)C(OC)C(C)O5)C(OC(C)=O)C(C)O4)C(C)C(=O)C3=C(O)C2=C(O)C1OC1CC(OC2CC(OC3CC(C)(O)C(O)C(C)O3)C(O)C(C)O2)C(O)C(C)O1 (stereo not given),T/C,"dose: 0.25 mg/kg/injection, schedule: Q01DX009 (ip), vehicle: saline with Tween-80",108 % of control
same,T/C,"dose: 0.5 mg/kg/injection, schedule: Q01DX009 (ip), vehicle: saline with Tween-80",112 % of control
same,T/C,"dose: 1.0 mg/kg/injection, schedule: Q01DX009 (ip), vehicle: saline with Tween-80",110 % of control and 116 % of control
same,T/C,"dose: 2.6 mg/kg/injection, schedule: Q01DX009 (ip), vehicle: saline with Tween-80",157 % of control
same,T/C,"dose: 4.0 mg/kg/injection, schedule: Q01DX009 (ip), vehicle: saline with Tween-80",154 % of control and 167 % of control
same,T/C,"dose: 8.0 mg/kg/injection, schedule: Q01DX009 (ip), vehicle: saline with Tween-80",165 % of control
O=C(NC1CCCCC1)Oc1ccccc1-c1ccccc1,T/C,"dose: 100.0 mg/kg/injection, schedule: Q01DX009 (ip), vehicle: Klucel (hydroxypropylcellulose) (HPC)",88 % of control
same,T/C,"dose: 400.0 mg/kg/injection, schedule: Q01DX009 (ip), vehicle: Klucel (hydroxypropylcellulose) (HPC)",100 % of control
CCCCCCCCCCCCNCCC#N,T/C,[2],100 % of control
same,T/C,[8],92 % of control
same,T/C,[9],91 % of control and 100 % of control
same,T/C,[3],89 % of control
CN(C)CC(C)(C)CN1c2ccccc2Sc2ccccc21,T/C,[1],117 % of control
same,T/C,[10],105 % of control
same,T/C,"dose: 25.0 mg/kg/injection, schedule: Q01DX009 (ip), vehicle: saline",105 % of control
CC1CC(C)(O)CC(C(O)CC2CC(=O)NC(=O)C2)C1=O (stereo not given),T/C,"dose: 0.98 mg/kg/injection, schedule: Q04DX003 (ip), vehicle: saline",111 % of control
same,T/C,"dose: 1.4 mg/kg/injection, schedule: Q04DX003 (ip), vehicle: saline",100 % of control
same,T/C,"dose: 2.0 mg/kg/injection, schedule: Q04DX003 (ip), vehicle: saline",91 % of control
same,T/C,"dose: 2.86 mg/kg/injection, schedule: Q04DX003 (ip), vehicle: saline",102 % of control
C=C1C(=O)OC2CC1C(OC(C)=O)CC1(C)OC1CCC1(C)OC1CCC2(C)O (stereo not given),T/C,"dose: 6.25 mg/kg/injection, schedule: Q01DX009 (ip), vehicle: Klucel (hydroxypropylcellulose) (HPC)",102 % of control
same,T/C,[5],97 % of control
same,T/C,[6],100 % of control
same,T/C,[7],92 % of control
